Reference: US5747545A, “Method of preventing NMDA receptor complex-mediated Neuronal damage” (priority 1995, dated 1998)
“Also recorded” adds a separate entry of the source. Values belong to the molecule of their own block, whether it stands above or below them.

Tests used:
[1] = adult treated for Parkinson's symptoms for several weeks; reversible after discontinuation; cited from earlier work
[2] = system: NMDA receptor (rat cortical neurons in culture); assay: Digital fura-2 imaging of NMDA-evoked intracellular [Ca2+] in cultured cortical neurons; type: cell-based, rat (Sprague-Dawley); details: 50 μM NMDA; Examples 1-2; NTG 100 μM in Example 2
Method: The concentration of intracellular free Ca^2+ ([Ca^2+ ]i) is measured in neonatal cortical neurons by digital imaging microscopy with the Ca^2+ sensitive fluorescent dye fura 2, as follows. The same cortical neuronal cultures as described above are used. During Ca^2+ measurements, unless otherwise stated the fluid bathing the neurons consists of Hanks' balanced salts: 137.6 mM NaCl, 1 mM NaHCO3, 0.34 mM Na2 HPO4, 0.44 mM KH2 PO4, 5.36 mM KCl, 1.25 mM CaCl2, 0.5 mM MgSO4, 0.5 mM MgCl2, 5 mM Hepes NaOH, 22.2 mM glucose, and sometimes with phenol red indicator (0.001% v/v); pH 7.2. NMDA (in the absence Mg^++), glutamate, and other substances are usually applied to the neurons by pressure ejection after dilution in this bath solution. Neuronal [Ca^2+ ]i is analyzed with fura 2-acetoxy-methyl ester (AM) as described [Grynkiewicz, et al., J. Biol. Chem. 260:3440 (1985); Williams et al., Nature 318:558 (1985); Connor et al., J. Neurosci. 7:1384 (1987); Connor et al., Science 240:649 (1988); Cohan et al., J. Neurosci. 7:3588 (1987); Mattson, et al., ibid, 9:3728 (1989)]. After adding Eagle's minimum essential medium containing 10 μM fura 2-AM to the neurons, the cultures are incubated at 37° C. in a 5% CO2 /95% air humidified chamber and then rinsed. The dye is loaded, trapped, and deesterified within 1 hour, as determined by stable fluorescence ratios and the effect of the Ca^2+ ionophore ionomycin on [Ca^2+ ]i is measured. During Ca^2+ imaging, the cells are incubated in a solution of Hepes-buffered saline with Hanks' balanced salts. The [Ca^2+ ]i is calculated from ratio images that are obtained by measuring the fluorescence at 500 nm that is excited by 350 and 380 nm light with a DAGE MTI 66 SIT or QUANTEX QX-100 Intensified CCD camera mounted on a Zeiss Axiovert 35 microscope. Exposure time for each picture is 500 ms. Analysis is performed with a Quantex (Sunnyvale, Calif.) QX7-210 image-processing system. Since cells are exposed to ultraviolet light only during data collection (generally less than a total of 20 s per cell), bleaching of fura 2 is minimal.
In this experiment, the effect of NTG on intracellular [Ca^++ ] increases induced by NMDA were followed using digital [Ca^++ ] imaging techniques, based on the dye fura-2.
Specifically, the model for NMDA-mediated neurotoxicity involves exposure of cultured rat cortical neurons to NMDA in the presence of glycine (a co-agonist).
Cortical cultures were derived from embryonic (fetal day 15 or 16) Sprague-Dawley rats as described previously (Dichter, 1978; Rosenberg and Aizenman, 1989). […]

[3] = system: NMDA receptor (cortical neurons); assay: Patch-clamp recording of NMDA-evoked current in cortical neurons; type: cell-based, rat (Sprague-Dawley); details: for Effect on NMDA-evoked current: 50 μM NMDA + 1 μM glycine, -60 mV, DTT 2 mM, NTG 500 μM, DTNB 500 μM, 2 min exposure, washout, FIG. 4
[4] = system: NMDA receptor (rat cortical neurons in culture); assay: Digital fura-2 imaging of NMDA-evoked intracellular [Ca2+] in cultured cortical neurons; type: cell-based, rat (Sprague-Dawley); details: for Effect on NMDA-evoked [Ca2+]i response (SNOC experiment): after 2 mM DTT, 3 min exposure to 100 μM SNOC, NMDA 50 μM, FIG. 5A, P<0.01
[5] = system: cortical neurons (NMDA receptor-mediated neurotoxicity); assay: Neurotoxicity assay: survival of cortical neurons after DTT and NMDA exposure; type: cell-based, rat; details: chemical reduction of redox modulatory site
Method: To test compounds for their ability to prevent neurotoxicity, neuronal cell death may be assayed as follows. […] The candidate compound is tested by addition (e.g., in a series of concentrations ranging from 0.1 nM-10 mM) after DTT treatment but before NMDA treatment. The candidate compound can be added for minutes, hours, or even days prior to its washout period. […] Neuronal cultures are scored for cell survival after this overnight incubation because NMDA toxicity is often delayed by several hours following NMDA exposure.
Using the neurotoxicity assay described above, the compounds sodium nitroprusside and nitroglycerin were tested individually for their ability to increase survival of neonatal cortical neurons.
As shown in FIG. 6A-6D, surviving neurons are expressed as the percentage of viable neurons in the control culture dishes in the same experiment. The concentrations of drugs were as follows: APV (2 mM), NTG (100 μM), SNP (400 μM), DTT (0.5-2 mM), and reduced Hb (500 μM). […] Values are mean ±SEM for experiments run in triplicate on sibling cultures on separate days (total of 32 experiments). Astericks indicate significant difference compared with the value for DTT-NMDA exposure, P<0.05 (ANOVA followed by Scheffe multiple comparison of means.

[6] = system: cortical neurons (neuronal survival); details: SNOC or purified peroxynitrite incubation; listed as OONO^-
Method: S-nitrosocysteine was added as a source of NO.cndot. to cerebrocortical cultures (Lei et al., (1992) Neuron 8:1087-1099; Stamler et al., (1992) Science 258:1898-1902).
Peroxynitrite leads to lipid peroxidation and massive oxidation of sulfhydryls (Radi et al., (1991) J. Biol. Chem. 266:4244-4250; Radi et al., (1991) Arch. Biochem. Biophys. 288:481-487).
Values are expressed as mean+s.e.m. (n=9). Statistical comparisons were performed by an analysis of variance followed by a Scheffe multiple comparison of means (*, P<0.01 compared to control; **, P<0.05 compared to control; .dagger., P<0.01 compared to nitroso compound+SOD/catalase).
Specifically, the data in FIG. 7 were generated using mixed neuronal and glial cortical cultures from neonatal rats, as described previously (Lei, et al., (1992) Neuron 8:1087-1099). In at least three separate experiments, triplicate cultures were incubated overnight in Earle's buffered saline solution (EBSS) containing various concentrations of SNOC, peroxynitrite, SOD, catalase, or glutamate. […] The culture fluid was assayed for […] (LDH) as an indicator of neuronal survival by measuring the absorbance at 450 nm (Koh et al., (1987) J. Neurosci. Meth. 20:83-90). The cultures were also scored for neuronal viability by cell counting, generally with 0.2% trypan blue, after fixation in 2.5% glutaraldehyde, as described above. Neurons from cultures grown on 15 mm diameter cover slips were counted in a masked fashion in ~30 microscopic fields at 200 x.

SMILES: Cl.NC12CC3CC(CC(C3)C1)C2 [amantadine, 1-adamantanamine hydrochloride]
Visual loss (case report) [1]: one case report of visual loss in an adult patient

SMILES: O=C(O)c1cc(SSc2ccc([N+](=O)[O-])c(C(=O)O)c2)ccc1[N+](=O)[O-] [DTNB, 5,5dithio-bis-2-nitrobenzoic acid]
Effect on NMDA-evoked [Ca2+]i response [2]: decreased the NMDA evoked [Ca^2+ ]i responses
Effect on NMDA-evoked current [3]: decreased the responses slightly
Effect on amplitude of NMDA evoked current following alkylation with NEM ([3]; after 1-5 mM NEM): neither NTG nor DTNB significantly affected the amplitude of NMDA evoked current

Effect on NMDA-evoked [Ca2+]i response (SNOC experiment) [4]: inhibited
SMILES: NC(CSN=O)C(=O)O (stereo not shown) [S-nitrosocysteine (SNOC)]

Effect on NMDA-evoked [Ca2+]i response [2]: reversed the effect of NTG
SMILES: O[C@H](CS)[C@H](O)CS (racemic) [DTT, dithiothreitol]
Effect on NMDA-evoked current [3]: enhanced the NMDA-evoked current; also recorded: increased NMDA-activated currents
Effect on neurotoxic effect of NMDA [5]: increases the neurotoxic effect of NMDA
Effect on NMDA-evoked [Ca2+]i response (SNOC experiment) [4]: the NMDA-evoked response was increased; also recorded: fully reversed the inhibitory effect of S-nitrosocysteine

SMILES: CCN1C(=O)C=CC1=O [NEM, N-ethylmalemide]
Effect of NEM pretreatment on the SNOC effect on NMDA-evoked [Ca2+]i ([4]; NEM pretreatment, FIG. 5B): blocks the effect of SNOC

SMILES: CN[C@H](CC(=O)O)C(=O)O [NMDA, N-methyl-D-aspartate]
Maximum NMDA response obtained after exposure to DTT, [Ca2+]i ([4]; NMDA 50 μM after 2 mM DTT, FIG. 5): ~ 750 nM [Ca2+]i

Effect on NMDA-evoked [Ca2+]i response [2]: further enhanced
SMILES: O[C@H](CS)[C@H](O)CS (relative stereo) [dithiothreitol (DTT)]

SMILES: O=NOO [peroxynitrite]
Killing of cortical neurons [6]: kills neurons in a dose-dependent fashion
